Reference: paper PMC8564633, “SMAC/Diablo controls proliferation of cancer cells by regulating phosphatidylethanolamine synthesis” (Molecular Oncology, 2021)
Where two headings read alike, the source gives them in different places. Non-standard residues stand in square brackets, D forms with d. Residues, ends and D or L forms follow the SMILES beside them. Dmt = Cc1cc(O)cc(C)c1C[C@H](N)C(=O)O; Orn = NCCC[C@H](N)C(=O)O

Test system: A549 cells
Format: cell-based, human
Conditions: 24 h
Procedure: Cells were seeded in 96‐well cell culture plates (8000/well) and allowed to grow for 48 h. After washing with PBS, cells were fixed with 50% trichloroacetic acid and stained with SRB for 20 min. Excess SRB was removed, and cells were washed with 1% acetic acid. SRB extraction was done using 100 mM Tris‐base, and absorbance at 510 nm was determined using an Infinite M1000 plate reader (Tecan, Männedorf, Switzerland).
Fig. 7 PSD‐interacting peptides bind to PSD, inhibiting its activity, and when cell‐penetrating and mitochondria‐ or nucleus‐targeted, inhibit cell proliferation. […] (B) Inhibition of PSD activity by the 2F3 (●) or 1C11 (○) peptide. PSD activity was measured using the DSB‐3 method. (C‐E) Cell proliferation inhibition following incubation of A549 cells with the indicated mitochondria‐ or nucleus‐targeted peptides for 24 h in a serum‐free medium, and cell proliferation was assayed using the SRB method. Results are the means ± SEM (n = 3). (F) A549 cells were incubated for 90 min with 5 µM of the mitochondria‐ or nucleus‐targeted FITC‐labelled peptides, immunostained with anti‐SMAC antibodies and with DAPI and visualized by confocal microscope for subcellular localization. (a) and (b) present higher magnification, white arrows point to possible nuclear localization of the peptide, and blue arrows to its colocalization with mitochondria marker (n = 3). Scale bars represent 20, 10 µm as indicated.
Table S4. Effects of peptide identified as interacting with PSD or their interaction with SMAC/Diablo is prevented in the presence of PSD on A549 lung cancer cell growth A549 cells were seeded in 96-well plate (7000 cells/well). After 24 h cells were incubated without or with the indicated peptide concentration for 24 h in a serum-free medium. Then, cells were washed with PBS, and analyzed for cell growth using the SRB method. Results are the mean ± SD (n=3). Peptide sequence, its identification manner, based on interacting with PSD or their interaction with SMAC/Diablo is prevented in the presence of PSD are shown. In addition, the peptides are presented with the cell penetrating peptide targeting to the mitochondria or the nucleus. The results are presented as the concentration required for 50% inhibition (IC50).
No Peptide spot and Protein/Function Peptide and Cellular IC50 […]
ALSTSSPIPSVPQSQ transcriptional coactivator 2 Mitochondria (A) […]
AQPQTGSGAS truncated poly Q, transcriptional H-(D-Arg)–Dmt–Orn–Phe- 2F3 >100 Interacting with PSD coactivator for NOTCH proteins, Mitochondria promotes proliferative signaling R-{D-Arg}-RK- 2F3 28.9±5.2 during neurogenesis (Nucleus). Nucleus […]
PNQSSRAFQGTDHS transcriptional coactivator 2 Mitochondria
SDLAFDFLSQQ truncated poly Q, A transcriptional D-Arg–Dmt–Orn–Phe-2I8 66.8±4.7 Identified by PSD coactivator for NOTCH proteins, Mitochondria preventing SMAC promotes proliferative signaling R-{D-Arg}-RK-2I8 >100 interaction with it during neurogenesis (Nucleus). Nucleus […]
ALLTSGTSDPRARV protease promotes cell death either Mitochondria […]
TYGTPSLWARL by direct binding to IAPs proteins D-Arg–Dmt–Orn–Phe -1C11 89.3±5.49 Interacting with PSD leading to increased caspase Mitochondria activity or caspase-independent and serine protease activity-dependent R-{D-Arg}-RK- 1C11 66.5±3.9 mechanism. (Mitochondrion Nucleus intermembrane space). 1C11- R-{D-Arg}-RK 30.0±3.8 […]
ELYRMSTYSTFPAG Acts as an E3 ubiquitin-protein Mitochondria
VPVSERSLARA ligase, regulator of NF-kappa-B 1E14- D-Arg–Dmt–Orn–Phe >100 Identified by PSD signaling, apoptosis, cell Mitochondria preventing SMAC proliferation, cell invasion and R-{D-Arg}-RK-1E14 >100 interaction with it metastasis, modulates inflammatory Nucleus signaling, (Cytosol, nucleus and […]

[1] = A549 cells, serum‐free medium, SRB, read-out: IC50, cell proliferation inhibition

Molecule | IC50 [µM] | IC50 [1] [µM]
CC(C)C[C@H](NC(=O)[C@H](C)N)C(=O)N[C@@H](CC(C)C)C(=O)N[C@H](C(=O)N[C@@H](CO)C(=O)NCC(=O)N[C@H](C(=O)N[C@@H](CO)C(=O)N[C@@H](CC(=O)O)C(=O)N1CCC[C@H]1C(=O)N[C@@H](CCCNC(=N)N)C(=O)N[C@@H](C)C(=O)N[C@@H](CCCNC(=N)N)C(=O)N[C@H](C(=O)N[C@H](C(=O)N[C@@H](Cc1ccc(O)cc1)C(=O)NCC(=O)N[C@H](C(=O)N1CCC[C@H]1C(=O)N[C@@H](CO)C(=O)N[C@@H](CC(C)C)C(=O)N[C@@H](Cc1c[nH]c2ccccc12)C(=O)N[C@@H](C)C(=O)N[C@@H](CCCNC(=N)N)C(=O)N[C@@H](CC(C)C)C(=O)N[C@@H](CCCNC(=N)N)C(=O)N[C@H](CCCNC(=N)N)C(=O)N[C@@H](CCCNC(=N)N)C(=O)N[C@@H](CCCCN)C(=O)O)[C@@H](C)O)[C@@H](C)O)C(C)C)[C@@H](C)O)[C@@H](C)O [1C11-R-{D-Arg}-RK] (H-ALLTSGTSDPRARVTYGTPSLWARLR[dR]RK-OH; N-terminus and C-terminus assumed) | 30 | 
CC[C@H](C)[C@H](NC(=O)[C@@H]1CCCN1C(=O)[C@H](CO)NC(=O)[C@H](CO)NC(=O)[C@@H](NC(=O)[C@H](CO)NC(=O)[C@H](CC(C)C)NC(=O)[C@H](C)N)[C@@H](C)O)C(=O)N1CCC[C@H]1C(=O)N[C@@H](CO)C(=O)N[C@H](C(=O)N1CCC[C@H]1C(=O)N[C@@H](CCC(N)=O)C(=O)N[C@@H](CO)C(=O)N[C@@H](CCC(N)=O)C(=O)N[C@@H](C)C(=O)N[C@@H](CCC(N)=O)C(=O)N1CCC[C@H]1C(=O)N[C@@H](CCC(N)=O)C(=O)N[C@H](C(=O)NCC(=O)N[C@@H](CO)C(=O)NCC(=O)N[C@@H](C)C(=O)N[C@@H](CO)C(=O)N[C@@H](CCCNC(=N)N)C(=O)N[C@H](CCCNC(=N)N)C(=O)N[C@@H](CCCNC(=N)N)C(=O)N[C@@H](CCCCN)C(=O)O)[C@@H](C)O)C(C)C [2F3-R-{D-Arg}-RK] (H-ALSTSSPIPSVPQSQAQPQTGSGASR[dR]RK-OH; N-terminus and C-terminus assumed) | 29.6 ± 0.6 | 19.6
Cc1cc(O)cc(C)c1C[C@H](NC(=O)[C@@H](CCCNC(=N)N)NC(=O)[C@H](CCC(N)=O)NC(=O)[C@H](CCC(N)=O)NC(=O)[C@H](CO)NC(=O)[C@H](CC(C)C)NC(=O)[C@H](Cc1ccccc1)NC(=O)[C@H](CC(=O)O)NC(=O)[C@H](Cc1ccccc1)NC(=O)[C@H](C)NC(=O)[C@H](CC(C)C)NC(=O)[C@H](CC(=O)O)NC(=O)[C@H](CO)NC(=O)[C@H](CO)NC(=O)[C@H](Cc1c[nH]cn1)NC(=O)[C@H](CC(=O)O)NC(=O)[C@@H](NC(=O)CNC(=O)[C@H](CCC(N)=O)NC(=O)[C@H](Cc1ccccc1)NC(=O)[C@H](C)NC(=O)[C@H](CCCNC(=N)N)NC(=O)[C@H](CO)NC(=O)[C@H](CO)NC(=O)[C@H](CCC(N)=O)NC(=O)[C@H](CC(N)=O)NC(=O)[C@@H]1CCCN1)[C@@H](C)O)C(=O)N[C@@H](CCCN)C(=O)N[C@@H](Cc1ccccc1)C(N)=O [2I8- (D-Arg)-Dmt-Orn-Phe-NH2] (H-PNQSSRAFQGTDHSSDLAFDFLSQQ[dR][Dmt][Orn]F-NH2; N-terminus assumed) | 30.2 ± 3.6 | 
CC[C@H](C)[C@H](NC(=O)[C@@H]1CCCN1C(=O)[C@H](CO)NC(=O)[C@H](CO)NC(=O)[C@@H](NC(=O)[C@H](CO)NC(=O)[C@H](CC(C)C)NC(=O)[C@H](C)NC(=O)[C@H](CCCCN)NC(=O)[C@H](CCCNC(=N)N)NC(=O)[C@@H](CCCNC(=N)N)NC(=O)[C@@H](N)CCCNC(=N)N)[C@@H](C)O)C(=O)N1CCC[C@H]1C(=O)N[C@@H](CO)C(=O)N[C@H](C(=O)N1CCC[C@H]1C(=O)N[C@@H](CCC(N)=O)C(=O)N[C@@H](CO)C(=O)N[C@@H](CCC(N)=O)C(=O)N[C@@H](C)C(=O)N[C@@H](CCC(N)=O)C(=O)N1CCC[C@H]1C(=O)N[C@@H](CCC(N)=O)C(=O)N[C@H](C(=O)NCC(=O)N[C@@H](CO)C(=O)NCC(=O)N[C@@H](C)C(=O)N[C@@H](CO)C(=O)O)[C@@H](C)O)C(C)C [R-{D-Arg}-RK- 2F3] (H-R[dR]RKALSTSSPIPSVPQSQAQPQTGSGAS-OH; N-terminus and C-terminus assumed) | 28.9 ± 5.2 | 19.6
CC(C)C[C@H](NC(=O)[C@H](CC(=O)O)NC(=O)[C@H](CO)NC(=O)[C@H](CO)NC(=O)[C@H](Cc1c[nH]cn1)NC(=O)[C@H](CC(=O)O)NC(=O)[C@@H](NC(=O)CNC(=O)[C@H](CCC(N)=O)NC(=O)[C@H](Cc1ccccc1)NC(=O)[C@H](C)NC(=O)[C@H](CCCNC(=N)N)NC(=O)[C@H](CO)NC(=O)[C@H](CO)NC(=O)[C@H](CCC(N)=O)NC(=O)[C@H](CC(N)=O)NC(=O)[C@@H]1CCCN1C(=O)[C@H](CCCCN)NC(=O)[C@H](CCCNC(=N)N)NC(=O)[C@@H](CCCNC(=N)N)NC(=O)[C@@H](N)CCCNC(=N)N)[C@@H](C)O)C(=O)N[C@@H](C)C(=O)N[C@@H](Cc1ccccc1)C(=O)N[C@@H](CC(=O)O)C(=O)N[C@@H](Cc1ccccc1)C(=O)N[C@@H](CC(C)C)C(=O)N[C@@H](CO)C(=O)N[C@@H](CCC(N)=O)C(=O)N[C@@H](CCC(N)=O)C(=O)O [R-{D-Arg}-RK-2I8] (H-R[dR]RKPNQSSRAFQGTDHSSDLAFDFLSQQ-OH; N-terminus and C-terminus assumed) | > 100 | 
CC(C)C[C@H](NC(=O)[C@H](CC(=O)O)NC(=O)[C@H](CO)NC(=O)[C@H](CO)NC(=O)[C@H](Cc1c[nH]cn1)NC(=O)[C@H](CC(=O)O)NC(=O)[C@@H](NC(=O)CNC(=O)[C@H](CCC(N)=O)NC(=O)[C@H](Cc1ccccc1)NC(=O)[C@H](C)NC(=O)[C@H](CCCNC(=N)N)NC(=O)[C@H](CO)NC(=O)[C@H](CO)NC(=O)[C@H](CCC(N)=O)NC(=O)[C@H](CC(N)=O)NC(=O)[C@@H]1CCCN1)[C@@H](C)O)C(=O)N[C@@H](C)C(=O)N[C@@H](Cc1ccccc1)C(=O)N[C@@H](CC(=O)O)C(=O)N[C@@H](Cc1ccccc1)C(=O)N[C@@H](CC(C)C)C(=O)N[C@@H](CO)C(=O)N[C@@H](CCC(N)=O)C(=O)N[C@@H](CCC(N)=O)C(=O)N[C@@H](CCCNC(=N)N)C(=O)N[C@H](CCCNC(=N)N)C(=O)N[C@@H](CCCNC(=N)N)C(=O)N[C@@H](CCCCN)C(=O)O [2I8-R-{D-Arg}-RK] (H-PNQSSRAFQGTDHSSDLAFDFLSQQR[dR]RK-OH; N-terminus and C-terminus assumed) | 19.7 | 
2F3 -D-Arg–Dmt–Orn–Phe |  | 19.6
CSCC[C@H](NC(=O)[C@H](CCCNC(=N)N)NC(=O)[C@H](Cc1ccc(O)cc1)NC(=O)[C@H](CC(C)C)NC(=O)[C@H](CCC(=O)O)NC(=O)[C@H](Cc1ccccc1)NC(=O)[C@H](CCCN)NC(=O)[C@H](Cc1c(C)cc(O)cc1C)NC(=O)[C@H](N)CCCNC(=N)N)C(=O)N[C@@H](CO)C(=O)N[C@H](C(=O)N[C@@H](Cc1ccc(O)cc1)C(=O)N[C@@H](CO)C(=O)N[C@H](C(=O)N[C@@H](Cc1ccccc1)C(=O)N1CCC[C@H]1C(=O)N[C@@H](C)C(=O)NCC(=O)N[C@H](C(=O)N1CCC[C@H]1C(=O)N[C@H](C(=O)N[C@@H](CO)C(=O)N[C@@H](CCC(=O)O)C(=O)N[C@@H](CCCNC(=N)N)C(=O)N[C@@H](CO)C(=O)N[C@@H](CC(C)C)C(=O)N[C@@H](C)C(=O)N[C@@H](CCCNC(=N)N)C(=O)N[C@@H](C)C(=O)O)C(C)C)C(C)C)[C@@H](C)O)[C@@H](C)O [D-Arg–Dmt–Orn–Phe-1E14] (H-[dR][Dmt][Orn]FELYRMSTYSTFPAGVPVSERSLARA-OH; N-terminus and C-terminus assumed) | > 100 | 
